Source: patent US10934302B1, “SHP2 phosphatase inhibitors and methods of use thereof” (Relay Therapeutics, Inc., priority 2018, dated 2021)

Each compound was assayed against SHP2 (Homo sapiens (Human), UniProt Q06124) (assay: SHP2 allosteric inhibition assay (DiFMUP prompt fluorescence)). Conditions: 0.25 nM SHP2 activated with 0.5 μM peptide IRS1_pY1172(dPEG8)pY1222; substrate DiFMUP.
Format: biochemical

SMILES | IC50
N[C@@H]1c2ccccc2CC12CCN(c1cnc3c(Oc4cc[nH]c(=O)c4Cl)n[nH]c3n1)CC2 [Example 135, 4-({6-[(3S)-3-amino-1,3-dihydrospiro[indene-2,4′-piperidin]-1′-yl]-1H-pyrazolo[3,4-b]pyrazin-3-yl}oxy)-3-chloro-1,2-dihydropyridin-2-one] | ≤ 50 nM
Nc1nccc(Sc2cnc3c(n2)OC[C@H]2C[C@@]4(CCN32)Oc2ccccc2[C@H]4N)c1Cl [Example 222] | ≤ 50 nM
N[C@H]1c2ccccc2C[C@]12CC[C@@H](c1cnc(SCC3CC3)cn1)CC2 [Example 285, (1r, 4r)-4-{5-[(cyclopropylmethyl)sulfanyl]pyrazin-2-yl}-1′,3′-dihydrospiro[cyclohexane-1,2′-inden]-3′-amine] | ≤ 50 nM
Cn1c(N2CCC3(CC2)Cc2ccccc2[C@H]3N)nc2[nH]nc(N3CCCCC3)c2c1=O (racemic) [Example 200] | ≤ 50 nM
N[C@@H]1c2ccccc2CC12CCN(c1cnc(Sc3ccnc(Cl)c3Cl)cn1)CC2 [Example 130, (3S)-1′-{5-[(2,3-dichloropyridin-4-yl)sulfanyl]pyrazin-2-yl}-1,3-dihydrospiro[indene-2,4′-piperidin]-3-amine] | ≤ 50 nM
C[C@@H](C(=O)N1CCC2(CC1)Cc1ccccc1[C@H]2N)c1ccc(F)cc1 (single isomer, unassigned) [Example 291] | > 10000 nM
CN(c1ccnc(N)c1)c1n[nH]c2nc(N3CCC4(CC3)Cc3ccccc3[C@H]4N)cnc12 [Example 148, (S)—N4-(6-(1-amino-1,3-dihydrospiro[indene-2,4′-piperidin]-1′-yl)-1H-pyrazolo[3,4-b]pyrazin-3-yl)-N4-methylpyridine-2,4-diamine] | ≤ 50 nM
Nc1nccc(Oc2n[nH]c3nc(N4CCC5(CC4)Cc4ccccc4[C@H]5N)cnc23)c1Cl (single isomer, unassigned) [Example 137] | ≤ 50 nM
Cc1nc2c(N3CCCCC3)n[nH]c2nc1N1CCC2(CC1)Oc1ccc(F)cc1[C@H]2N [Example 208] | 1000 to 10000 nM
Cc1nc(N2CCC3(CC2)Cc2c(F)cccc2[C@H]3N)c(CO)nc1-c1cccc(Cl)c1Cl [Example 269, (S)-(3-(1-amino-4-fluoro-1,3-dihydrospiro[indene-2,4′-piperidin]-1′-yl)-6-(2,3-dichlorophenyl)-5-methylpyrazin-2-yl)methanol] | ≤ 50 nM
N[C@@H]1c2ccccc2CC12CCN(c1cnc(SC3CCOCC3)cn1)CC2 [Example 185, (S)-1′-(5-((tetrahydro-2H-pyran-4-yl)thio)pyrazin-2-yl)-1,3-dihydrospiro[indene-2,4′-piperidin]-1-amine] | 1000 to 10000 nM
Cn1c(N2CCC3(CC2)Cc2ccccc2[C@H]3N)ncc(Sc2cccc(Cl)c2Cl)c1=O [Example 242, (S)-2-(1-amino-1,3-dihydrospiro[indene-2,4′-piperidin]-1′-yl)-5-((2,3-dichlorophenyl)thio)-3-methylpyrimidin-4(3H)-one] | ≤ 50 nM
N[C@@H]1c2ccccc2CC12CCN(c1cnc(S[C@@H]3CCOC3)cn1)CC2 [Example 235] | > 10000 nM
N[C@@H]1c2ccccc2CC12CCN(c1cnc3c(Oc4ccnc(Cl)c4Cl)n[nH]c3n1)CC2 [Example 126, (3S)-1′-{3-[(2,3-dichloropyridin-4-yl)oxy]-1H-pyrazolo[3,4-b]pyrazin-6-yl}-1,3-dihydrospiro[indene-2,4′-piperidin]-3-amine] | ≤ 50 nM
N[C@@H]1c2ccccc2CC12CCN(c1cnc(Oc3ccnc(Cl)c3Cl)cn1)CC2 [Example 134, (3S)-1′-{5-[(2,3-dichloropyridin-4-yl)oxy]pyrazin-2-yl}-1,3-dihydrospiro[indene-2,4′-piperidin]-3-amine] | ≤ 50 nM
N[C@@H]1c2ccccc2CC12CCN(c1cnc3c(N4CCCc5cc(OS(=O)(=O)F)ccc54)n[nH]c3n1)CC2 [Example 65, 1-{6-[(3S)-3-amino-1,3-dihydrospiro[indene-2,4′-piperidin]-1′-yl]-1H-pyrazolo[3,4-b]pyrazin-3-yl}-1,2,3,4-tetrahydroquinolin-6-yl sulfurofluoridate] | ≤ 50 nM
N[C@@H]1c2ccccc2CC12CCN(c1cnc(SC3CCCCC3)cn1)CC2 [Example 233, (3S)-1′-[5-(cyclohexylsulfanyl)pyrazin-2-yl]-1,3-dihydrospiro[indene-2,4′-piperidin]-3-amine] | ≤ 50 nM
N[C@H]1c2cccc(F)c2CC12CCN(c1cnc3cn[nH]c3n1)CC2 [Example 24] | ≤ 50 nM
Nc1nccc(Sc2cnc(N3CCC4(CC3)Cc3ccccc3[C@@H]4N)cn2)c1Cl [Example 80, (R)-1′-(5-((2-amino-3-chloropyridin-4-yl)thio)pyrazin-2-yl)-1,3-dihydrospiro[indene-2,4′-piperidin]-1-amine] | ≤ 50 nM

Next, values leading:

IC50 | SMILES
≤ 50 nM | Cc1nc2c(N3CCCc4nc(-c5cnn(C)c5)ccc43)n[nH]c2nc1N1CCC2(CC1)Cc1ccccc1[C@H]2N [Example 149, (3S)-1′-{5-methyl-3-[6-(1-methyl-1H-pyrazol-4-yl)-1,2,3,4-tetrahydro-1,5-naphthyridin-1-yl]-1H-pyrazolo[3,4-b]pyrazin-6-yl}-1,3-dihydrospiro[indene-2,4′-piperidin]-3-amine]
1000 to 10000 nM | Cc1cc(-c2nccs2)cc(N2CCC3(CC2)Cc2ccccc2[C@H]3N)n1 [Example 270, (S)-1′-(6-methyl-4-(thiazol-2-yl)pyridin-2-yl)-1,3-dihydrospiro[indene-2,4′-piperidin]-1-amine]
1000 to 10000 nM | Cn1ncc2c(N3CCC4(CC3)Cc3ccccc3[C@H]4N)ncnc21 [Example 181]
> 10000 nM | N[C@@H]1c2ccccc2CC12CCN(c1cnc(N3CCC[C@H]3c3ccccc3)cn1)CC2 (racemic) [Example 165, (3S)-1′-{5-[(2S)-2-phenylpyrrolidin-1-yl]pyrazin-2-yl}-1,3-dihydrospiro[indene-2,4′-piperidin]-3-amine]
1000 to 10000 nM | N[C@@H]1c2ccccc2CC12CCN(c1cc(C(F)(F)F)c3nncn3n1)CC2 [Example 230]
≤ 50 nM | N#Cc1cccc2c1CC1(CCN(c3cnc4c(N5CCCc6ncccc65)n[nH]c4n3)CC1)[C@@H]2N [Example 117, (S)-1-amino-1′-(3-(3,4-dihydro-1,5-naphthyridin-1(2H)-yl)-1H-pyrazolo[3,4-b]pyrazin-6-yl)-1,3-dihydrospiro[indene-2,4′-piperidine]-4-carbonitrile]
≤ 50 nM | N[C@@H]1c2ccccc2C[C@]12CC[C@H](c1ccc(Sc3ccnc(Cl)c3Cl)nc1)CC2 [Example 279, (1s,3'S,4R)-4-{6-[(2,3-dichloropyridin-4-yl)sulfanyl]pyridin-3-yl}-1′,3′-dihydrospiro[cyclohexane-1,2′-inden]-3′-amine]
≤ 50 nM | N#Cc1ccc2c(c1)N([C@H]1C[C@@H](O)C1)CCN2c1n[nH]c2nc(N3CCC4(CC3)Cc3ccccc3C4N)cnc12 (stereo partly drawn) [Example 34]
≤ 50 nM | COc1ccc2c(n1)[C@@H](N)C1(CCN(c3cnc4c(N5CCCc6ncccc65)n[nH]c4n3)CC1)C2 [Example 106]
≤ 50 nM | Cc1nc(N2CCCc3ncccc32)cnc1N1CCC2(CC1)Cc1ccccc1[C@H]2N [Example 196]
50 to 1000 nM | N[C@@H]1c2ccccc2CC12CCN(c1nc3[nH]nc(N4CCCc5ncccc54)c3nc1CO)CC2 [Example 100]
≤ 50 nM | N[C@@H]1c2ccccc2CC12CCN(c1cnc(S[C@H]3CCOC3)cn1)CC2 (single isomer, unassigned) [Example 234]
≤ 50 nM | Cc1nc2c(N3CCCc4ncccc43)n[nH]c2nc1N1CCC2(CC1)Cc1ccccc1[C@H]2N [Example 124, (S)-1′-(3-(3,4-dihydro-1,5-naphthyridin-1(2H)-yl)-5-methyl-1H-pyrazolo[3,4-b]pyrazin-6-yl)-1,3-dihydrospiro[indene-2,4′-piperidin]-1-amine]
50 to 1000 nM | Cn1cnc2c(N3CCC4(CC3)Cc3ccccc3[C@H]4N)ncnc21 [Example 184]
≤ 50 nM | N[C@@H]1c2ccccc2CC12CCN(c1cnc(C(=O)c3ccccc3)cn1)CC2 [Example 256, (S)-(5-(1-amino-1,3-dihydrospiro[indene-2,4′-piperidin]-1′-yl)pyrazin-2-yl)(phenyl)methanone]
50 to 1000 nM | N[C@H]1c2ccccc2C[C@]12CC[C@@H](c1cnc(Sc3ccnc(Cl)c3Cl)cn1)CC2 (single isomer, unassigned) [Example 277, (1r, 4r)-4-(5-((2,3-dichloropyridin-4-yl)thio)pyrazin-2-yl)-1′,3′-dihydrospiro[cyclohexane-1,2′-inden]-1′-amine]
50 to 1000 nM | Nc1nccc(Sc2ccc(N3CCC4(CC3)Oc3ccccc3[C@H]4N)cn2)c1Cl [Example 216]
≤ 50 nM | Cn1ccc2c(c1=O)CCCN2c1n[nH]c2nc(N3CCC4(CC3)Cc3ccc(F)cc3[C@H]4N)cnc12 [Example 58]
≤ 50 nM | CS(=O)(=O)c1cccc2c1CCCN2c1n[nH]c2nc(N3CCC4(CC3)Cc3ccc(F)cc3[C@H]4N)cnc12 [Example 41]
≤ 50 nM | COc1cccc(-n2ccc(C(=O)N3CCC4(CC3)Cc3ccccc3[C@H]4N)n2)c1 [Example 287, (1S)-1′-[1-(3-methoxyphenyl)-1H-pyrazole-3-carbonyl]-1,3-dihydrospiro[indene-2,4′-piperidin]-1-amine]
≤ 50 nM | N[C@@H]1c2cccc(F)c2OC12CCN(c1cnc3c(N4CCCc5ncccc54)n[nH]c3n1)CC2 [Example 54]
≤ 50 nM | N[C@H]1c2ccccc2C[C@]12CC[C@H](c1cnc(Sc3ccnc(Cl)c3Cl)cn1)CC2 (single isomer, unassigned) [Example 276, (1s, 3′R, 4S)-4-{5-[(2,3-dichloropyridin-4-yl)sulfanyl]pyrazin-2-yl}-1′,3′-dihydrospiro[cyclohexane-1,2′-inden]-3′-amine]
≤ 50 nM | CNC(=O)c1n[nH]c2nc(N3CCC4(CC3)Cc3ccccc3[C@H]4N)c(C)nc12 [Example 125, 6-[(3S)-3-amino-1,3-dihydrospiro[indene-2,4′-piperidin]-1′-yl]-N,5-dimethyl-1H-pyrazolo[3,4-b]pyrazine-3-carboxamide]
